Reference: publication PMC9234962, “Optimization of Peptide Linker-Based Fluorescent Ligands for the Histamine H1 Receptor” (Journal of Medicinal Chemistry, 2022)
Square brackets hold non-standard residues; d marks the D form. Peptide text beside a SMILES is read from it. * marks the point of attachment. Propanoyl(3-Pip(4-O-2-BnPh)) = O=C(CCN1CCC(Oc2ccccc2Cc2ccccc2)CC1)*

Experiments:
Nluc-H1R [1] = target: T1, Nluc-H1R (Homo sapiens, UniProt P35367); test: NanoBRET competition binding assay (displacement of 1) on Nluc-H1R expressing HEK293T cells; conditions: for Ki / pKi: displacement of 1 (25 nM, KD = 8 nM), whole HEK293T cells, Cheng–Prusoff; for pKi: mean ± SEM, three experiments; for pKi/pKD (H1R): supplementary CSV, unlabeled congeners (pKi)
T1 sequence (P35367 whole entry): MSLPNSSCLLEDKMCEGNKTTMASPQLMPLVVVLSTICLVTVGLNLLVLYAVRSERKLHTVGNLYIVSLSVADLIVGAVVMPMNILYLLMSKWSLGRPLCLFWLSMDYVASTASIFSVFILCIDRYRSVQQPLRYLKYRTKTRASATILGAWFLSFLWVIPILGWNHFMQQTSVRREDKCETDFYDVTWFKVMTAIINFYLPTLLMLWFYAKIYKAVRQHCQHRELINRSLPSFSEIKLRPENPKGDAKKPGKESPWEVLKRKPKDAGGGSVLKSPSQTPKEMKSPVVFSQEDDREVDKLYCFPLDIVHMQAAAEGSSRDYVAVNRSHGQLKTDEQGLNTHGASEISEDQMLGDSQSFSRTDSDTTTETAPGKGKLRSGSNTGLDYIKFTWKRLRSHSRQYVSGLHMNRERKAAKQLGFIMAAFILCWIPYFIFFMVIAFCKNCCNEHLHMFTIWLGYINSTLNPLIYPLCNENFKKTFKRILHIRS

Nluc-H1R [2] = target: T1, Nluc-H1R; test: NanoBRET saturation binding assay on Nluc-H1R expressing HEK293T cells; parameters: expressed in transfected cells; conditions: saturation binding curves, whole HEK293T cells; for pKD: non-specific with 10 μM mepyramine, mean ± SEM
Text: Total and non-specific saturation binding curves from NanoBRET saturation binding assay were fitted simultaneously using eq 1: [drawing 4] 1 where Bmax is the maximal specific binding, [B] is the concentration of fluorescent ligand in nM, KD is the equilibrium dissociation constant in nM, M is the slope of the non-specific component, and C is the intercept with the Y axis.

Compound: CC(C)[C@H](NC(=O)CCN1CCC(Oc2ccccc2Cc2ccccc2)CC1)C(=O)N[C@@H](CCCCN)C(=O)N[C@@H](C)C(=O)N[C@H](Cc1ccccc1)C(N)=O [Compound 9h, (S)-6-Amino-N-((S)-1-(((R)-1-amino-1-oxo-3-phenylpropan-2-yl)amino)-1-oxopropan-2-yl)-2-((S)-2-(3-(4-(2-benzylphenoxy)piperidin-1-yl)propanamido)-3-methylbutanamido)hexanamide] ({Propanoyl(3-Pip(4-O-2-BnPh))}-VKA[dF]-NH2)
- Ki (Nluc-H1R [1]): 2.4 µM
- pKi (Nluc-H1R [1]): 5.62 ± 0.06

Compound: CC(C)[C@H](NC(=O)CCN1CCC(Oc2ccccc2Cc2ccccc2)CC1)C(=O)N[C@@H](CC(=O)O)C(=O)N[C@@H](C)C(=O)N[C@H](Cc1ccccc1)C(N)=O [Compound 9i, (S)-4-(((S)-1-(((R)-1-Amino-1-oxo-3-phenylpropan-2-yl)amino)-1-oxopropan-2-yl)amino)-3-((S)-2-(3-(4-(2-benzylphenoxy)piperidin-1-yl)propanamido)-3-methylbutanamido)-4-oxobutanoic Acid] ({Propanoyl(3-Pip(4-O-2-BnPh))}-VDA[dF]-NH2)
- Ki (Nluc-H1R [1]): 0.55 µM
- pKi (Nluc-H1R [1]): 6.26 ± 0.14

Compound: CC(C)[C@H](NC(=O)CCN1CCC(Oc2ccccc2Cc2ccccc2)CC1)C(=O)N[C@@H](CO)C(=O)NCC(=O)N[C@H](Cc1ccccc1)C(N)=O [Compound 10a, (S)-N-((S)-1-((2-(((R)-1-Amino-1-oxo-3-phenylpropan-2-yl)amino)-2-oxoethyl)amino)-3-hydroxy-1-oxopropan-2-yl)-2-(3-(4-(2-benzylphenoxy)piperidin-1-yl)propanamido)-3-methylbutanamide] ({Propanoyl(3-Pip(4-O-2-BnPh))}-VSG[dF]-NH2)
- Ki (Nluc-H1R [1]): 0.158 µM
- pKi (Nluc-H1R [1]): 6.80 ± 0.05

Compound: CC(C)[C@H](NC(=O)CCN1CCC(Oc2ccccc2Cc2ccccc2)CC1)C(=O)N[C@@H](CO)C(=O)N[C@H](C(=O)N[C@H](Cc1ccccc1)C(N)=O)C(C)C [Compound 10b, (S)-N-((R)-1-Amino-1-oxo-3-phenylpropan-2-yl)-2-((S)-2-((S)-2-(3-(4-(2-benzylphenoxy)piperidin-1-yl)propanamido)-3-methylbutanamido)-3-hydroxypropanamido)-3-methylbutanamide] ({Propanoyl(3-Pip(4-O-2-BnPh))}-VSV[dF]-NH2)
- Ki (Nluc-H1R [1]): 0.309 µM
- pKi (Nluc-H1R [1]): 6.51 ± 0.07

Compound: CC(C)[C@H](NC(=O)CCN1CCC(Oc2ccccc2Cc2ccccc2)CC1)C(=O)N[C@@H](CO)C(=O)N[C@@H](Cc1ccccc1)C(=O)N[C@H](Cc1ccccc1)C(N)=O [Compound 10c, (S)-N-((S)-1-(((S)-1-(((R)-1-Amino-1-oxo-3-phenylpropan-2-yl)amino)-1-oxo-3-phenylpropan-2-yl)amino)-3-hydroxy-1-oxopropan-2-yl)-2-(3-(4-(2-benzylphenoxy)piperidin-1-yl)propanamido)-3-methylbutanamide] ({Propanoyl(3-Pip(4-O-2-BnPh))}-VSF[dF]-NH2)
- Ki (Nluc-H1R [1]): 0.11 µM
- pKi (Nluc-H1R [1]): 6.96 ± 0.02

Compound: CC(C)[C@H](NC(=O)CCN1CCC(Oc2ccccc2Cc2ccccc2)CC1)C(=O)N[C@@H](CO)C(=O)N[C@@H](Cc1ccc(O)cc1)C(=O)N[C@H](Cc1ccccc1)C(N)=O [Compound 10d, (S)-N-((S)-1-(((S)-1-(((R)-1-Amino-1-oxo-3-phenylpropan-2-yl)amino)-3-(4-hydroxyphenyl)-1-oxopropan-2-yl)amino)-3-hydroxy-1-oxopropan-2-yl)-2-(3-(4-(2-benzylphenoxy)piperidin-1-yl)propanamido)-3-methylbutanamide] ({Propanoyl(3-Pip(4-O-2-BnPh))}-VSY[dF]-NH2)
- Ki (Nluc-H1R [1]): 0.095 µM
- pKi (Nluc-H1R [1]): 7.02 ± 0.08

Compound: CC(C)[C@H](NC(=O)CCN1CCC(Oc2ccccc2Cc2ccccc2)CC1)C(=O)N[C@@H](CO)C(=O)N[C@@H](CO)C(=O)N[C@H](Cc1ccccc1)C(N)=O [Compound 10e, (S)-N-((S)-1-(((S)-1-(((R)-1-Amino-1-oxo-3-phenylpropan-2-yl)amino)-3-hydroxy-1-oxopropan-2-yl)amino)-3-hydroxy-1-oxopropan-2-yl)-2-(3-(4-(2-benzylphenoxy)piperidin-1-yl)propanamido)-3-methylbutanamide] ({Propanoyl(3-Pip(4-O-2-BnPh))}-VSS[dF]-NH2)
- Ki (Nluc-H1R [1]): 0.339 µM
- pKi (Nluc-H1R [1]): 6.47 ± 0.03

Compound: CC(C)[C@H](NC(=O)CCN1CCC(Oc2ccccc2Cc2ccccc2)CC1)C(=O)N[C@@H](CO)C(=O)N[C@@H](CC(N)=O)C(=O)N[C@H](Cc1ccccc1)C(N)=O [Compound 10f, (S)-N1-((R)-1-Amino-1-oxo-3-phenylpropan-2-yl)-2-((S)-2-((S)-2-(3-(4-(2-benzylphenoxy)piperidin-1-yl)propanamido)-3-methylbutanamido)-3-hydroxypropanamido)succinamide] ({Propanoyl(3-Pip(4-O-2-BnPh))}-VSN[dF]-NH2)
- Ki (Nluc-H1R [1]): 0.095 µM
- pKi (Nluc-H1R [1]): 7.02 ± 0.08

Compound: CC(C)[C@H](NC(=O)CCN1CCC(Oc2ccccc2Cc2ccccc2)CC1)C(=O)N[C@@H](CO)C(=O)N[C@@H](Cc1cnc[nH]1)C(=O)N[C@H](Cc1ccccc1)C(N)=O [Compound 10g, (S)-N-((S)-1-(((S)-1-(((R)-1-Amino-1-oxo-3-phenylpropan-2-yl)amino)-3-(1H-imidazol-4-yl)-1-oxopropan-2-yl)amino)-3-hydroxy-1-oxopropan-2-yl)-2-(3-(4-(2-benzylphenoxy)piperidin-1-yl)propanamido)-3-methylbutanamide] ({Propanoyl(3-Pip(4-O-2-BnPh))}-VSH[dF]-NH2)
- Ki (Nluc-H1R [1]): 0.126 µM
- pKi (Nluc-H1R [1]): 6.90 ± 0.04

Compound: CC(C)[C@H](NC(=O)CCN1CCC(Oc2ccccc2Cc2ccccc2)CC1)C(=O)N[C@@H](CO)C(=O)N[C@@H](CCCCN)C(=O)N[C@H](Cc1ccccc1)C(N)=O [Compound 10h, (S)-6-Amino-N-((R)-1-amino-1-oxo-3-phenylpropan-2-yl)-2-((S)-2-((S)-2-(3-(4-(2-benzylphenoxy)piperidin-1-yl)propanamido)-3-methylbutanamido)-3-hydroxypropanamido)hexanamide] ({Propanoyl(3-Pip(4-O-2-BnPh))}-VSK[dF]-NH2)
- Ki (Nluc-H1R [1]): 0.186 µM
- pKi (Nluc-H1R [1]): 6.73 ± 0.05

Compound: CC(C)[C@H](NC(=O)CCN1CCC(Oc2ccccc2Cc2ccccc2)CC1)C(=O)N[C@@H](CO)C(=O)N[C@@H](CC(=O)O)C(=O)N[C@H](Cc1ccccc1)C(N)=O [Compound 10i, (S)-4-(((R)-1-Amino-1-oxo-3-phenylpropan-2-yl)amino)-3-((S)-2-((S)-2-(3-(4-(2-benzylphenoxy)piperidin-1-yl)propanamido)-3-methylbutanamido)-3-hydroxypropanamido)-4-oxobutanoic Acid] ({Propanoyl(3-Pip(4-O-2-BnPh))}-VSD[dF]-NH2)
- Ki (Nluc-H1R [1]): 0.174 µM
- pKi (Nluc-H1R [1]): 6.76 ± 0.04

Compound: CC(C)[C@H](NC(=O)CCN1CCC(Oc2ccccc2Cc2ccccc2)CC1)C(=O)N[C@@H](CO)C(=O)N[C@@H](CC(N)=O)C(=O)N[C@@H](Cn1cc(COc2ccc(/C=C/C3=[N+]4C(=Cc5ccc(-c6cccs6)n5[B-]4(F)F)C=C3)cc2)nn1)C(N)=O [Compound 22a, (S)-N1-((S)-1-Amino-3-(4-((4-((E)-2-(5,5-difluoro-7-(thiophen-2-yl)-5H-5λ^4,6λ^4-dipyrrolo[1,2-c:2’,1’-f][1,3,2]diazaborinin-3-yl)vinyl)phenoxy)methyl)-1H-1,2,3-triazol-1-yl)-1-oxopropan-2-yl)-2-((S)-2-((S)-2-(3-(4-(2-benzylphenoxy)piperidin-1-yl)propanamido)-3-methylbutanamido)-3-hydroxypropanamido)succinamide]
- Kd (Nluc-H1R [2]): 0.028 µM
- pKD (Nluc-H1R [2]): 7.55 ± 0.07

Compound: C[C@H](NC(=O)CCN1CCC(Oc2ccccc2Cc2ccccc2)CC1)C(=O)N[C@@H](C)C(=O)N[C@@H](C)C(=O)N[C@@H](Cn1cc(COc2ccc(/C=C/C3=[N+]4C(=Cc5ccc(-c6cccs6)n5[B-]4(F)F)C=C3)cc2)nn1)C(N)=O [Compound 22b, (S)-N-((S)-1-Amino-3-(4-((4-((E)-2-(5,5-difluoro-7-(thiophen-2-yl)-5H-5λ^4,6λ^4-dipyrrolo[1,2-c:2’,1’-f][1,3,2]diazaborinin-3-yl)vinyl)phenoxy)methyl)-1H-1,2,3-triazol-1-yl)-1-oxopropan-2-yl)-2-((S)-2-((S)-2-(3-(4-(2-benzylphenoxy)piperidin-1-yl)propanamido)propanamido)propanamido)propenamide]
- Kd (Nluc-H1R [2]): 0.02 µM
- pKD (Nluc-H1R [2]): 7.70 ± 0.05

Compound: (S)-N1-((S)-1-Amino-1-oxo-3-phenylpropan-2-yl)-2-((S)-2-((S)-2-(3-(4-(2-benzylphenoxy)piperidin-1-yl)propanamido)-3-methylbutanamido)-3-hydroxypropanamido)succinimide [Compound 11b]
- Ki (Nluc-H1R [1]): 0.437 µM
- pKi (Nluc-H1R [1]): 6.36 ± 0.22
- pKi/pKD (H1R) (Nluc-H1R [1]): 7.05

Compound: (S)-N-((S)-1-(((S)-1-(((S)-1-Amino-1-oxo-3-phenylpropan-2-yl)amino)-3-(4-hydroxyphenyl)-1-oxopropan-2-yl)amino)-3-hydroxy-1-oxopropan-2-yl)-2-(3-(4-(2-benzylphenoxy)piperidin-1-yl)propanamido)-3-methylbutanamide [Compound 11a]
- Ki (Nluc-H1R [1]): 0.089 µM
- pKi/pKD (H1R) (Nluc-H1R [1]): 6.36
